From ChEMBL document CHEMBL6134856, “Rapid Response Antimicrobial Peptide Design Strategy Driven by Meta-Learning for Emerging Drug-Resistant Pathogens” (J Med Chem, 2025) come the findings set out here.

Data set [1] concerns Acinetobacter baumannii. In words: Antimicrobial activity against SAM/CTX/AK/CRO/CN drugs-resistant Acinetobacter baumannii 0004 assessed as inhibition of bacterial growth incubated for approximately 18 hrs by resazurin dye based broth microdilution assay. In kind it is functional.
Another data set relates to Staphylococcus aureus. Briefly: Antimicrobial activity against Staphylococcus aureus ATCC 25923 assessed as inhibition of bacterial growth incubated for approximately 18 hrs by resazurin dye based broth microdilution assay. In kind it is functional. On the technique in general: Resazurin is reduced to fluorescent resorufin, in cell work by metabolically active cells.
In another data set the test system is Candida albicans. Briefly: Antimicrobial activity against Candida albicans ATCC 14053 assessed as inhibition of bacterial growth incubated for approximately 18 hrs by resazurin dye based broth microdilution assay. In kind it is functional.
Data set [2] is described as follows: Hemolytic activity in Sprague-Dawley rat erythrocytes incubated for 1 hr by multifunctional microplate reader analysis. In kind it is toxicity, cell-based, Erythrocyte. The settings on record: for HC50 at 1 h: Sprague-Dawley, erythrocytes; for HC5: erythrocyte, 1 h.
For data set [3], the system named is Acinetobacter baumannii. Briefly: Antimicrobial activity against SAM/CTX/AK/CRO/CN drugs-resistant Acinetobacter baumannii 0101 assessed as inhibition of bacterial growth incubated for approximately 18 hrs by resazurin dye based broth microdilution assay. Format: functional.
In data set [4] the test system is Acinetobacter baumannii. Briefly: Antimicrobial activity against CTX/AK/CRO drugs-resistant Acinetobacter baumannii 0110 assessed as inhibition of bacterial growth incubated for approximately 18 hrs by resazurin dye based broth microdilution assay. In kind it is functional.
In data set [5] the test system is Acinetobacter baumannii. In words: Antimicrobial activity against CTX/CRO/CN drugs-resistant Acinetobacter baumannii 0214 assessed as inhibition of bacterial growth incubated for approximately 18 hrs by resazurin dye based broth microdilution assay. Format: functional.
Data set [6] has as its system Acinetobacter baumannii. In words: Antimicrobial activity against SAM/CTX/CRO/CN drugs-resistant Acinetobacter baumannii 0320 assessed as inhibition of bacterial growth incubated for approximately 18 hrs by resazurin dye based broth microdilution assay. In kind it is functional.
In data set [7] the test system is Acinetobacter baumannii. In words: Antimicrobial activity against SAM-resistant Acinetobacter baumannii 0413 assessed as inhibition of bacterial growth incubated for approximately 18 hrs by resazurin dye based broth microdilution assay. In kind it is functional.

On to H-RLIKIWWIYRRKWR-OH, for which the MIC in the data set with Acinetobacter baumannii [1] was found to be 128 µM.
With H-GWAKRLVQRLADWLRKF-OH, the MIC in the data set on Acinetobacter baumannii [1] is 2 µM; in the data set on Staphylococcus aureus, 8 µM; in the data set on Candida albicans, greater than 32 µM. For the same substance, the HC50 at 1 h in data set [2] worked out at 43.9 µM. Besides, the HC5 in data set [2] is 7.22 µM.
H-RIWVLIYRWYRKWY-OH: in the data set on Acinetobacter baumannii [1], the MIC is 32 µM.
Same read-out and setting: the figure for H-RWRKIWFLWRYKIW-OH is 128 µM; for H-KIRWLLYWIRRKRL-OH it is 16 µM.
For the substance H-RIRFKWRWWMRIRLKWY-OH, the MIC was 16 µM with Acinetobacter baumannii [1], greater than 32 µM with Staphylococcus aureus and greater than 32 µM in the data set with Candida albicans. In addition, the HC50 at 1 h in [2] was greater than 256 µM. The same substance had an HC5 in data set [2] greater than 256 µM.
Regarding H-KRIWRKILWWIKWR-OH, in the data set on Acinetobacter baumannii [1], the MIC came out at 8 µM.
Regarding H-RLWKIWWKIWRVLI-OH, the MIC with Acinetobacter baumannii [1] was determined as 16 µM.
In the case of H-GLWKRWKKVLWGAKNKI-OH, the MIC turned out to be 2 µM in the data set on Acinetobacter baumannii [1]; 16 µM with Staphylococcus aureus; 8 µM in the data set on Candida albicans; 4 µM with Acinetobacter baumannii [3]; 4 µM in the data set on Acinetobacter baumannii [4]; 4 µM in the data set with Acinetobacter baumannii [5]. Besides, the MIC in the data set with Acinetobacter baumannii [6] and in the data set with Acinetobacter baumannii [7] was 2 µM each time. For the same substance, the HC50 at 1 h in data set [2] is greater than 256 µM. Further, in data set [2], the HC5 was greater than 256 µM.
As to H-IWLAVWKGLLKRWLH-OH, the MIC with Acinetobacter baumannii [1] amounted to 2 µM; with Staphylococcus aureus, 2 µM; in the data set with Candida albicans, 16 µM. The substance further gave an HC50 at 1 h in data set [2] of 10.5 µM. This substance yielded an HC5 in data set [2] of 1.17 µM.
For the substance H-AWKAKLKRLAIAWKR-OH, the MIC in the data set on Acinetobacter baumannii [1] is 4 µM; with Staphylococcus aureus it was greater than 32 µM; in the data set on Candida albicans it was 8 µM; in the data set with Acinetobacter baumannii [3], 8 µM; in the data set on Acinetobacter baumannii [4] it was 8 µM; in the data set with Acinetobacter baumannii [5], 4 µM. The MIC with Acinetobacter baumannii [6] and with Acinetobacter baumannii [7] was 4 µM each time. In data set [2], the HC50 at 1 h was greater than 256 µM. This substance came in with an HC5 in [2] greater than 256 µM.
As for H-RRRLILWILWRRLR-OH, the MIC in the data set with Acinetobacter baumannii [1] is 4 µM; in the data set on Staphylococcus aureus it was 8 µM; in the data set with Candida albicans it was greater than 32 µM. This substance also came in with an HC50 at 1 h in data set [2] of 166 µM. The substance further gave an HC5 in data set [2] of 10.09 µM.
Consider H-KWKIFKRIVGRILRYLR-OH, for which the MIC with Acinetobacter baumannii [1] was 4 µM; in the data set on Staphylococcus aureus it was 8 µM; with Candida albicans, greater than 32 µM. In [2], this substance gave an HC50 at 1 h of 15.7 µM. Besides, the HC5 in data set [2] is 1.47 µM.
For H-KWARRLVYLIANYWKKR-OH, the values for the MIC with Acinetobacter baumannii [1], in the data set on Staphylococcus aureus and in the data set on Candida albicans were 2 µM, greater than 32 µM and greater than 32 µM, respectively. The substance also gave an HC50 at 1 h in data set [2] of 117 µM. In data set [2], the HC5 worked out at 14.63 µM.
Turning to H-KLKRWLVWLIRKLW-OH, in the data set with Acinetobacter baumannii [1], the MIC worked out at 16 µM.
H-FWKKVFKWIWRVLHNFG-OH: the MIC in the data set with Acinetobacter baumannii [1] worked out at 8 µM. Further, in data set [2], the HC50 at 1 h is 12.6 µM and the HC5 stood at 1.28 µM.
Regarding H-VLAANRLVRRLAQKIAR-OH, the MIC in the data set on Acinetobacter baumannii [1] is 32 µM; with Staphylococcus aureus, greater than 32 µM; in the data set on Candida albicans it was 16 µM. The same substance showed an HC50 at 1 h in [2] greater than 256 µM. Moreover, the HC5 in data set [2] is greater than 256 µM.
For H-WFKKLLKLALKWAKYA-OH, the values for the MIC in the data set with Acinetobacter baumannii [1], with Staphylococcus aureus and in the data set with Candida albicans were 4 µM, 2 µM and greater than 32 µM, respectively. The substance also had an HC50 at 1 h in [2] of 13.1 µM. For the same substance, the HC5 in data set [2] amounted to 1.46 µM.
Consider H-RQIKIWFQNRRWGLQLK-OH, for which the MIC in the data set with Acinetobacter baumannii [1] was 16 µM; in the data set with Staphylococcus aureus it was greater than 32 µM; with Candida albicans, greater than 32 µM; in the data set on Acinetobacter baumannii [3], 16 µM; in the data set on Acinetobacter baumannii [4] it was 16 µM; in the data set on Acinetobacter baumannii [5], 16 µM. For the same substance, the MIC in the data set on Acinetobacter baumannii [6] stood at 16 µM; in the data set on Acinetobacter baumannii [7], 8 µM. The substance also gave an HC50 at 1 h in [2] greater than 256 µM. Also, the HC5 in data set [2] is greater than 256 µM.
On to H-RLWKIWLVWIRWRNQK-OH, for which the values for the MIC with Acinetobacter baumannii [1], with Staphylococcus aureus and in the data set on Candida albicans were 16 µM, greater than 32 µM and greater than 32 µM, respectively. In addition, in data set [2], the HC50 at 1 h worked out at 330 µM. Also, the HC5 in [2] worked out at 27.41 µM.
On to H-KWFKKLPKILHKLAKKW-OH, for which the MIC in the data set on Acinetobacter baumannii [1] was 2 µM; in the data set on Staphylococcus aureus it was 2 µM; with Candida albicans, greater than 32 µM; in the data set with Acinetobacter baumannii [3], 2 µM; in the data set on Acinetobacter baumannii [4], 2 µM; in the data set on Acinetobacter baumannii [5], 4 µM. Moreover, the MIC in the data set on Acinetobacter baumannii [6] and in the data set on Acinetobacter baumannii [7] was 2 µM in each case. The same substance showed an HC50 at 1 h in data set [2] of 294 µM. In data set [2], this substance came in with an HC5 of 38.67 µM.
In the case of H-LWKILKKIWRVLKNWN-OH, the MIC is 4 µM in the data set with Acinetobacter baumannii [1], 8 µM in the data set on Staphylococcus aureus and 32 µM in the data set on Candida albicans. This substance returned an HC50 at 1 h in data set [2] of 35.9 µM. Besides, in data set [2], the HC5 amounted to 7.59 µM.

What is called MIC is the smallest concentration in the dilution series that meets the test's criterion for growth inhibition. The term HC50 denotes the concentration that lyses half of the red blood cells. A lower HC50 goes with more damage to red cells.
